From patent US20260092071A1, “COMPOUNDS AND COMPOSITIONS AS SMARCA2/4 DEGRADERS AND USES THEREOF” (REGENTS OF THE UNIVERSITY OF MICHIGAN, priority 2022, published 2026)

Legend:
SMARCA2 = SMARCA2 (Homo sapiens, UniProt P51531); assay: HiBit assay in engineered HT1080 CRISPR knock-in cell, 6 hrs (B series), SMARCA2; format: cell-based; settings: 6 hrs incubation; for DC50: read-out: SMARC A2 HT1080 HiBit DC50; for Dmax: HT-1080, HT1080 CRISPR knock-in cells, read-out: SMARC A2 HT1080 HiBit Dmax (%)
Chain of SMARCA2 (P51531 whole entry): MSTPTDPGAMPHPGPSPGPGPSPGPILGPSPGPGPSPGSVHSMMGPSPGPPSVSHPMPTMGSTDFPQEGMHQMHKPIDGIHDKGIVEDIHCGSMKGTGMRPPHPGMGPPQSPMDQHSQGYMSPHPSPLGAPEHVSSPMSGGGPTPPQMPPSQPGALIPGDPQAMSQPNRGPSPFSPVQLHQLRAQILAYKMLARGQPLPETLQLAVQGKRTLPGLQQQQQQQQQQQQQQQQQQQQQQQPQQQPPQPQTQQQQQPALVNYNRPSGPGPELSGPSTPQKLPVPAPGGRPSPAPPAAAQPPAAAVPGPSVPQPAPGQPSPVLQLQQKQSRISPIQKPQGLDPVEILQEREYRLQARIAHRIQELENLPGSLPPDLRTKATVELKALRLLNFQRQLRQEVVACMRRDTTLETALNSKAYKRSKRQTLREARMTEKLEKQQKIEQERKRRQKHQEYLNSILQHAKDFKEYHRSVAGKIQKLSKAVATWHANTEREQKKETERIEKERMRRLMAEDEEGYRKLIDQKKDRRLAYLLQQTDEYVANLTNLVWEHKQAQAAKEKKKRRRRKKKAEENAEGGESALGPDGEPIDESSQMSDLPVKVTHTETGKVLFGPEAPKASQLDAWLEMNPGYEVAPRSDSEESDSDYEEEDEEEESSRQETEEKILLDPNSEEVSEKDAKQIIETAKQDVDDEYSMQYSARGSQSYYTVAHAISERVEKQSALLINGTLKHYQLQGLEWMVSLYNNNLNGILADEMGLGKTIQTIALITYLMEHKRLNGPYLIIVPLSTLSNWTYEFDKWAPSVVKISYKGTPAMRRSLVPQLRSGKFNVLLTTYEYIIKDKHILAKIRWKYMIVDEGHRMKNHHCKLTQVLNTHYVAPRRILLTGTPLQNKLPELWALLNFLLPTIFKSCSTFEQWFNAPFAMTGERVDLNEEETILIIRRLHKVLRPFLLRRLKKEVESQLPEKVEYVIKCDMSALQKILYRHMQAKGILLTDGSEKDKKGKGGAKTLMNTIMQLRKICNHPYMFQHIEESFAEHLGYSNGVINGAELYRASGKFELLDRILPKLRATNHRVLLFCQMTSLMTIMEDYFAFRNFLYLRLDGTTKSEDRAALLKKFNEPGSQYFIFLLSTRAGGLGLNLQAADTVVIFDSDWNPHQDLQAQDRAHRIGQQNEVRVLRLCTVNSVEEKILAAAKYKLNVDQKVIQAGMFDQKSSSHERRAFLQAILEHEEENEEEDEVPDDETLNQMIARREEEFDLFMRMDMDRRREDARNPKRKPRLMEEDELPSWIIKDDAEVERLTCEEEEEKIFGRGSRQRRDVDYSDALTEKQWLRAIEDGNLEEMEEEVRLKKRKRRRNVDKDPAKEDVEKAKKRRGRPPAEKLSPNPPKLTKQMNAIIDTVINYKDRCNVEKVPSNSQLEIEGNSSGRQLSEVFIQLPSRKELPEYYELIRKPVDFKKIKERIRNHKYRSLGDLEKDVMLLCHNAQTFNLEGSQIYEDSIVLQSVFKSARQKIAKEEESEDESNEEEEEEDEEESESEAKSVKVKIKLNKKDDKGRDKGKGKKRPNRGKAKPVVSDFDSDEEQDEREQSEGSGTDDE
Procedure: (§1) The HiBit assay was performed using engineered HT1080 CRISPR knock-in cell utilizing the Nano-Glo HiBiT Lytic Detection System from Promega, Cat #N3040. Compounds were transferred, 25 nL DMSO or test compounds (final DMSO @ 0.1%) to intermediate plates (Corning3570) using ECHO550. Cells were seeded onto compounds at 2000 cells/25 μL/well and incubated for 6 hrs in a tissue culture incubator at 37° C. and 5% CO2. The LgBiT Protein was diluted at 1:100 and the Nano-Glo® HiBIT Lytic Substrate 1:50 into an appropriate volume of room temperature using the Nano-Glo® HiBiT Lytic Buffer. At the end of compound incubation time, 15 ul of the detection reagent was added to each well (without LgBiT for negative control wells) using the Thermo Scientific multidrop combi. The plate was shaken for 10 mins at RT using Combi. After briefly centrifugation (2000 rpm 1 mins), plate was read on Envision (Ultrasensitive luminescence model).

SMARCA4 = SMARCA4 (Homo sapiens, UniProt P51532); assay: HiBit assay in engineered HT1080 CRISPR knock-in cell, 6 hrs (B series), SMARCA4; format: cell-based; settings: 6 hrs incubation; for DC50: read-out: SMARC A4 HT1080 HiBit DC50; for Dmax: HT-1080, HT1080 CRISPR knock-in cells, read-out: SMARC A4 HT1080 HiBit Dmax(%)
Chain of SMARCA4 (P51532 whole entry): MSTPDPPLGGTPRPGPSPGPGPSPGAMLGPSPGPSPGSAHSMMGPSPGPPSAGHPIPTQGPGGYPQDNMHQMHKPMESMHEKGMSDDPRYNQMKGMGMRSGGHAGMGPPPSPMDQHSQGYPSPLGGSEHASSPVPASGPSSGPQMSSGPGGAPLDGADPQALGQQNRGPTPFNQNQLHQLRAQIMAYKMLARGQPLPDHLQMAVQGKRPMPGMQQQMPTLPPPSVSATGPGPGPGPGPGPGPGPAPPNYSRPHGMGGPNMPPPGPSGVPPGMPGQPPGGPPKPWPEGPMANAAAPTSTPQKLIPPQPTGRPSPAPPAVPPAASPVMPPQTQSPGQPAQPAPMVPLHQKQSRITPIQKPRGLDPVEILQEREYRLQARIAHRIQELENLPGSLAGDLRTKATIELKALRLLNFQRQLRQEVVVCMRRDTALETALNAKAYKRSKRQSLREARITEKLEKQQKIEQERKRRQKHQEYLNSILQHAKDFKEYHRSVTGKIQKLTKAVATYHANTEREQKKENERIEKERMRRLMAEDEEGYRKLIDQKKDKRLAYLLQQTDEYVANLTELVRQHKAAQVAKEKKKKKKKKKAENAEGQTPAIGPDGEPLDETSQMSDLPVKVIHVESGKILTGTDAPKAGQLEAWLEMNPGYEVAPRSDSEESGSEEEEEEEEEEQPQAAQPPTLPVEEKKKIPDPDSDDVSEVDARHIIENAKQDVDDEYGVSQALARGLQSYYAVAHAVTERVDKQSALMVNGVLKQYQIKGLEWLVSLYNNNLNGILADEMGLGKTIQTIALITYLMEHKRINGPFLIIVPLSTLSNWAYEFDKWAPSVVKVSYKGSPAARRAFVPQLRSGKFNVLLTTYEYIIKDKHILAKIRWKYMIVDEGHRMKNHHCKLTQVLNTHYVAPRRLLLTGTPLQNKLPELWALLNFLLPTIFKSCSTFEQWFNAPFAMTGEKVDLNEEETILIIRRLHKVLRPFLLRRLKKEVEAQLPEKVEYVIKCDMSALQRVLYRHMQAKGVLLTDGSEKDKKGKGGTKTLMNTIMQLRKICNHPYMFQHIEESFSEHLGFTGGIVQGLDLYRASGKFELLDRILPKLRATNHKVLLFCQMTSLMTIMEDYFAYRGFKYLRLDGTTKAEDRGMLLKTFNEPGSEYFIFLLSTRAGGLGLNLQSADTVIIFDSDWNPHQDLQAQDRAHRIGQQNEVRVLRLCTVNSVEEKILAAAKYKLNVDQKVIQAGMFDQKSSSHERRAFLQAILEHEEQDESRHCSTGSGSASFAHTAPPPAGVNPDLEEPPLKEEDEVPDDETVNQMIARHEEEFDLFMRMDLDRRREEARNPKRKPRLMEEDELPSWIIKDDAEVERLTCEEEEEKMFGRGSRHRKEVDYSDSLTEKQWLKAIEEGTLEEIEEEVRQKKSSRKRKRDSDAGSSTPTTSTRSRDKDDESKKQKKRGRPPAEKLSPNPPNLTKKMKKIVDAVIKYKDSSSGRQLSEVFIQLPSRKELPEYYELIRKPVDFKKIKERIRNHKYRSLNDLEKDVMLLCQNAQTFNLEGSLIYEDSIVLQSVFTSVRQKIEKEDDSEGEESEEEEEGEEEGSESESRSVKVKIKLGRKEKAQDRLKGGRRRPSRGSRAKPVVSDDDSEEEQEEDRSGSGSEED
Procedure: as §1

| DC50 (SMARCA2; HT1080 CRISPR knock-in cells) | Dmax (SMARCA2) | DC50 (SMARCA4; HT1080 CRISPR knock-in cells) | Dmax (SMARCA4) | SMARC A2 HT1080 HiBit Dmax (%) (SMARCA2; HT1080 CRISPR knock-in cells) | SMARC A4 HT1080 HiBit Dmax(%) (SMARCA4; HT1080 CRISPR knock-in cells) | Structure (SMILES) |
| --- | --- | --- | --- | --- | --- | --- |
| < 100 nM | > 90% | < 100 nM | 70 to 90% |  |  | Cc1ncsc1-c1ccc([C@H](C)NC(=O)[C@@H]2C[C@@H](O)CN2C(=O)[C@@H](c2cc(OCCN3CCC(c4ccc5c(c4)C(C)(C)c4nc(=O)c6c(Cl)cccc6n4-5)CC3)no2)C(C)C)cc1 [Compound B4, (2S,4R)-1-((R)-2-(3-(2-(4-(4-chloro-7,7-dimethyl-5-oxo-5,7-dihydroindolo[1,2-a]quinazolin-9-yl)piperidin-1-yl)ethoxy)isoxazol-5-yl)-3-methylbutanoyl)-4-hydroxy-N—((S)-1-(4-(4-methylthiazol-5-yl)phenyl)ethyl)pyrrolidine-2-carboxamide] |
| < 100 nM | > 90% | < 100 nM | > 90% |  |  | Cc1ncsc1-c1ccc([C@H](C)NC(=O)[C@@H]2C[C@@H](O)CN2C(=O)[C@@H](NC(=O)CN2CCC(c3ccc4c(c3)C(C)(C)c3nc(=O)c5c(Br)cccc5n3-4)CC2)C(C)(C)C)cc1 [Compound B5, (2S,4R)-1-((S)-2-(2-(4-(4-bromo-7,7-dimethyl-5-oxo-5,7-dihydroindolo[1,2-a]quinazolin-9-yl)piperidin-1-yl)acetamido)-3,3-dimethylbutanoyl)-4-hydroxy-N—((S)-1-(4-(4-methylthiazol-5-yl)phenyl)ethyl)pyrrolidine-2-carboxamide] |
| < 100 nM | > 90% | < 100 nM | > 90% |  |  | Cc1ncsc1-c1ccc([C@H](C)NC(=O)[C@@H]2C[C@@H](O)CN2C(=O)[C@@H](NC(=O)CN2CCC(c3ccc4c(c3)C(C)(C)c3nc(=O)c5c(Cl)cccc5n3-4)CC2)C(C)(C)C)cc1 [Compound B6, (2S,4R)-1-((S)-2-(2-(4-(4-chloro-7,7-dimethyl-5-oxo-5,7-dihydroindolo[1,2-a]quinazolin-9-yl)piperidin-1-yl)acetamido)-3,3-dimethylbutanoyl)-4-hydroxy-N—((S)-1-(4-(4-methylthiazol-5-yl)phenyl)ethyl)pyrrolidine-2-carboxamide] |
| < 100 nM | > 90% | < 100 nM | > 90% |  |  | Cc1ncsc1-c1ccc([C@H](CCCCCN2CCC(c3ccc4c(c3)C(C)(C)c3nc(=O)c5c(Cl)cccc5n3-4)CC2)NC(=O)[C@@H]2C[C@@H](O)CN2C(=O)[C@@H](NC(=O)C2(F)CC2)C(C)(C)C)cc1 [Compound B7, (2S,4R)—N—((S)-6-(4-(4-chloro-7,7-dimethyl-5-oxo-5,7-dihydroindolo[1,2-a]quinazolin-9-yl)piperidin-1-yl)-1-(4-(4-methylthiazol-5-yl)phenyl)hexyl)-1-((S)-2-(1-fluorocyclopropane-1-carboxamido)-3,3-dimethylbutanoyl)-4-hydroxypyrrolidine-2-carboxamide] |
| < 100 nM | > 90% | < 100 nM | 70 to 90% |  |  | Cc1ncsc1-c1ccc([C@H](C)NC(=O)[C@@H]2C[C@@H](O)CN2C(=O)C(c2cc(CN3CCC(c4ccc5c(c4)C(C)(C)c4nc(=O)c6c(Cl)cccc6n4-5)CC3)no2)C(C)C)cc1 (stereo partly drawn) [Compound B8, (2S,4R)-1-(2-(3-((4-(4-chloro-7,7-dimethyl-5-oxo-5,7-dihydroindolo[1,2-a]quinazolin-9-yl)piperidin-1-yl)methyl)isoxazol-5-yl)-3-methylbutanoyl)-4-hydroxy-N—((S)-1-(4-(4-methylthiazol-5-yl)phenyl)ethyl)pyrrolidine-2-carboxamide] |
| < 100 nM | > 90% | < 100 nM | > 90% |  |  | Cc1ncsc1-c1ccc([C@H](C)NC(=O)[C@@H]2C[C@@H](O)CN2C(=O)[C@@H](c2cc(N3CCC(CN4CCC(c5ccc6c(c5)C(C)(C)c5nc(=O)c7c(Cl)cccc7n5-6)CC4)CC3)no2)C(C)C)cc1 [Compound B9, (2S,4R)-1-((R)-2-(3-(4-((4-(4-chloro-7,7-dimethyl-5-oxo-5,7-dihydroindolo[1,2-a]quinazolin-9-yl)piperidin-1-yl)methyl)piperidin-1-yl)isoxazol-5-yl)-3-methylbutanoyl)-4-hydroxy-N—((S)-1-(4-(4-methylthiazol-5-yl)phenyl)ethyl)pyrrolidine-2-carboxamide] |
| < 100 nM | > 90% | < 100 nM | 70 to 90% |  |  | Cc1ncsc1-c1ccc([C@H](C)NC(=O)[C@@H]2C[C@@H](O)CN2C(=O)[C@@H](c2cc(N3CCC(CN4CCC(c5cccc6c5C(C)(C)c5nc(=O)c7c(Cl)cccc7n5-6)CC4)CC3)no2)C(C)C)cc1 [Compound B10, (2S,4R)-1-((R)-2-(3-(4-((4-(4-chloro-7,7-dimethyl-5-oxo-5,7-dihydroindolo[1,2-a]quinazolin-8-yl)piperidin-1-yl)methyl)piperidin-1-yl)isoxazol-5-yl)-3-methylbutanoyl)-4-hydroxy-N—((S)-1-(4-(4-methylthiazol-5-yl)phenyl)ethyl)pyrrolidine-2-carboxamide] |
| < 100 nM | > 90% | < 100 nM | > 90% |  |  | Cc1ncsc1-c1ccc([C@H](C)NC(=O)[C@@H]2C[C@@H](O)CN2C(=O)[C@@H](c2cc(OCCCN3CCC(c4ccc5c(c4)C(C)(C)c4nc(=O)c6c(Cl)cccc6n4-5)CC3)no2)C(C)C)cc1 [Compound B11, (2S,4R)-1-((R)-2-(3-(3-(4-(4-chloro-7,7-dimethyl-5-oxo-5,7-dihydroindolo[1,2-a]quinazolin-9-yl)piperidin-1-yl)propoxy)isoxazol-5-yl)-3-methylbutanoyl)-4-hydroxy-N-((S)-1-(4-(4-methylthiazol-5-yl)phenyl)ethyl)pyrrolidine-2-carboxamide] |
| < 100 nM | 70 to 90% | 100 to 500 nM | < 50% |  |  | Cc1ncsc1-c1ccc([C@H](C)NC(=O)[C@@H]2C[C@@H](O)CN2C(=O)[C@@H](NC(=O)C2CC(N3CCC(c4ccc5c(c4)C(C)(C)c4nc(=O)c6c(Cl)cccc6n4-5)CC3)C2)C(C)(C)C)cc1 (stereo partly drawn) [Compound B13, (2S,4R)-1-((2S)-2-(3-(4-(4-chloro-7,7-dimethyl-5-oxo-5,7-dihydroindolo[1,2-a]quinazolin-9-yl)piperidin-1-yl)cyclobutane-1-carboxamido)-3,3-dimethylbutanoyl)-4-hydroxy-N-((S)-1-(4-(4-methylthiazol-5-yl)phenyl)ethyl)pyrrolidine-2-carboxamide] |
| < 100 nM |  | 100 to 500 nM |  | A (A (>90% degradation)) | B (B (70-90% degradation)) | Cc1ncsc1-c1ccc([C@H](C)NC(=O)[C@@H]2C[C@@H](O)CN2C(=O)[C@@H](NC(=O)C2CC(N3CCC(c4ccc5c(c4)C(C)(C)c4nc(=O)c6c(Cl)cccc6n4-5)CC3)C2)C(C)(C)C)cc1 (stereo partly drawn) [Compound B14, (2S,4R)-1-((2S)-2-(3-(4-(4-chloro-7,7-dimethyl-5-oxo-5,7-dihydroindolo[1,2-a]quinazolin-9-yl)piperidin-1-yl)cyclobutane-1-carboxamido)-3,3-dimethylbutanoyl)-4-hydroxy-N-((S)-1-(4-(4-methylthiazol-5-yl)phenyl)ethyl)pyrrolidine-2-carboxamide] |
| < 100 nM | > 90% | < 100 nM | > 90% |  |  | Cc1ncsc1-c1ccc([C@H](C)NC(=O)[C@@H]2C[C@@H](O)CN2C(=O)C(c2cc(CCN3CCC(c4ccc5c(c4)C(C)(C)c4nc(=O)c6c(Cl)cccc6n4-5)CC3)no2)C(C)C)cc1 (stereo partly drawn) [Compound B15, (2S,4R)-1-(2-(3-(2-(4-(4-chloro-7,7-dimethyl-5-oxo-5,7-dihydroindolo[1,2-a]quinazolin-9-yl)piperidin-1-yl)ethyl)isoxazol-5-yl)-3-methylbutanoyl)-4-hydroxy-N-((S)-1-(4-(4-methylthiazol-5-yl)phenyl)ethyl)pyrrolidine-2-carboxamide] |
| < 100 nM | > 90% | < 100 nM | 70 to 90% |  |  | Cc1ncsc1-c1ccc([C@H](C)NC(=O)[C@@H]2C[C@@H](O)CN2C(=O)[C@@H](NC(=O)c2cccc(CN3CCC(c4ccc5c(c4)C(C)(C)c4nc(=O)c6c(Cl)cccc6n4-5)CC3)c2)C(C)(C)C)cc1 [Compound B16, (2S,4R)-1-((S)-2-(3-((4-(4-chloro-7,7-dimethyl-5-oxo-5,7-dihydroindolo[1,2-a]quinazolin-9-yl)piperidin-1-yl)methyl)benzamido)-3,3-dimethylbutanoyl)-4-hydroxy-N—((S)-1-(4-(4-methylthiazol-5-yl)phenyl)ethyl)pyrrolidine-2-carboxamide] |

| Structure (SMILES) | DC50 (SMARCA2; HT1080 CRISPR knock-in cells) | Dmax (SMARCA2) | DC50 (SMARCA4; HT1080 CRISPR knock-in cells) | Dmax (SMARCA4) | SMARC A2 HT1080 HiBit Dmax (%) (SMARCA2; HT1080 CRISPR knock-in cells) | SMARC A4 HT1080 HiBit Dmax(%) (SMARCA4; HT1080 CRISPR knock-in cells) |
| --- | --- | --- | --- | --- | --- | --- |
| Cc1ncsc1-c1ccc([C@H](C)NC(=O)[C@@H]2C[C@@H](O)CN2C(=O)[C@@H](c2cc(OCCCCN3CCC(c4ccc5c(c4)C(C)(C)c4nc(=O)c6c(Cl)cccc6n4-5)CC3)no2)C(C)C)cc1 [Compound B12, (2S,4R)-1-((R)-2-(3-(4-(4-(4-chloro-7,7-dimethyl-5-oxo-5,7-dihydroindolo[1,2-a]quinazolin-9-yl)piperidin-1-yl)butoxy)isoxazol-5-yl)-3-methylbutanoyl)-4-hydroxy-N-((S)-1-(4-(4-methylthiazol-5-yl)phenyl)ethyl)pyrrolidine-2-carboxamide] | < 100 nM | > 90% | < 100 nM | > 90% |  |  |
